Reference: US11103581B2, “Methods and compositions for self-regulated release of active pharmaceutical ingredient” (Acura Pharmaceuticals, Inc., priority 2015, dated 2021)

Columns and labels:
[1] = pH monitoring of calcium carbonate antacid tablets in HCl dissolution vessel; assay type: physicochemical; settings: five tablets, 25 mEq of HCl
Description: Two dissolution vessels were prepared: one vessel contained 25 mEq of HCl and a single commercially available calcium carbonate antacid tablet (Tums®), and the other vessel contained 25 mEq of HCl and five calcium carbonate antacid tablets. […] Calcium carbonate has shown a capability as a pH modifier and pH dependent solubility.

[2] = acid media pH 1
Description: Thus, sodium bicarbonate was added to a prototype formulation primarily to control rapid pH elevation and calcium carbonate for a more sustained control of elevated pH.

O=C([O-])[O-].[Ca+2] [calcium carbonate]
pH reached in 10 minutes [1]: 5

O=C([O-])O.[Na+] [sodium bicarbonate]
time to raise acid media from pH 1 to pH 6 [2]: less than 2 minutes
